Results: paper PMC11653251 (2024)

What was measured:
[1] = system: (AT)6 (DNA, duplex) ATATATATATAT; test: UV-vis absorption titration, Bard fit; details: K+ (50 mM potassium phosphate), complex 10 μM, average of two titrations, [DNA] per nucleobase (stated for st-DNA)
[2] = system: (GC)6 (DNA, duplex) GCGCGCGCGCGC; test: UV-vis absorption titration, Bard fit; details: K+ (50 mM potassium phosphate), complex 10 μM, average of two titrations, [DNA] per nucleobase (stated for st-DNA)

Kb [1]	Kb [2]	SMILES
1.13 ± 0.24 × 10^6 M^-1	1.17 ± 0.53 × 10^6 M^-1	Cc1cnc2c(ccc3c(C)c(C)cnc32)c1C.Cc1cnc2c(ccc3c(C)c(C)cnc32)c1C.[Cr+3].c1ccc2cc3nc4c5cccnc5c5ncccc5c4nc3cc2c1 [Δ-1]
11.8 ± 0.35 × 10^6 M^-1	2.39 ± 0.32 × 10^6 M^-1	Cc1cnc2c(ccc3c(C)c(C)cnc32)c1C.Cc1cnc2c(ccc3c(C)c(C)cnc32)c1C.[Cr+3].c1ccc2cc3nc4c5cccnc5c5ncccc5c4nc3cc2c1 [Λ-1]
